Data: article PMC5901969 (Pharmaceutical research, 2017)
Where two headings read alike, the source gives them in different places.

What was measured:
HIV = assay type: cell-based; settings: U1 cells, 24 h, p24
CYP3A4 [1] = target: T1, CYP3A4 (Homo sapiens, UniProt P08684); settings: read-out: apparent Km; ethanol as CYP3A4 substrate; cited from earlier work
CYP3A4 [2] = target: T1, CYP3A4; settings: cited from earlier work
monocytes = settings: absence of cobicistat; cited from earlier work
[3] = test system: HIV-infected (U1) cell line; experiment: Intracellular DRV concentration-time profile in HIV-infected monocytic; assay type: in vitro ADME; settings: U1 cells
[4] = oral 100 mg QD; cited from earlier work
[5] = 10 mM and 50 mM ethanol (data not shown)

T1 sequence (P08684 whole entry): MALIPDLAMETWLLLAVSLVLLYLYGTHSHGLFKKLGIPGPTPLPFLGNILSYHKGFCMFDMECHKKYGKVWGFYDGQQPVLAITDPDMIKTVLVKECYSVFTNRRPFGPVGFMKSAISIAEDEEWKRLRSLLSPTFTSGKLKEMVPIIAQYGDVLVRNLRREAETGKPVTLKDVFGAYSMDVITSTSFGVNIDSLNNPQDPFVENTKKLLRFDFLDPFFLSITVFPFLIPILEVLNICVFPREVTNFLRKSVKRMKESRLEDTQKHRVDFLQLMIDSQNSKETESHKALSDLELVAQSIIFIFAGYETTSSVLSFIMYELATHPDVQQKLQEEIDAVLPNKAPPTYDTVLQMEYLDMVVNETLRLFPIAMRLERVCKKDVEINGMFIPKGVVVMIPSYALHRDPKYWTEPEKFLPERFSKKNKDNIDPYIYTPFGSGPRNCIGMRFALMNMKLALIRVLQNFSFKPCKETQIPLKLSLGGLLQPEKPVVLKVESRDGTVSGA

Compound: CCO [Ethanol]
- increase in HIV replication compared to control (HIV; 10 mM ethanol alone): 89%
- increase in HIV replication compared to control (HIV; 20 mM ethanol alone): 20.6%
- increase in HIV replication compared to control (HIV; 50 mM ethanol alone): 41%
- Km (CYP3A4 [1]): 10 mM

Compound: Cc1c(O)cccc1C(=O)N[C@@H](CSc1ccccc1)[C@H](O)CN1C[C@H]2CCCC[C@H]2C[C@H]1C(=O)NC(C)(C)C [nelfinavir]
- decrease in IC50 in response to ethanol exposure (CYP3A4 [2]): 3 fold

Compound: COc1cc2c(cc1Cc1cccc(Cl)c1F)c(=O)c(C(=O)O)cn2[C@H](CO)C(C)C [EVG, Elvitegravir]
- intracellular AUCtot, effect of ethanol exposure (monocytes): decreases
- intracellular Cmax, effect of ethanol exposure (monocytes): decreases

Compound: CC(C)CN(C[C@@H](O)[C@H](Cc1ccccc1)NC(=O)O[C@H]1CO[C@H]2OCC[C@H]21)S(=O)(=O)c1ccc(N)cc1 [DRV, Darunavir]
- decrease in intracellular AUCtot of DRV ([3]; 3 μg/ml DRV, 20 mM ethanol, compared to DRV alone): 11%
- intracellular DRV AUCtot, effect of ethanol [3, 5]: no significant change
- intracellular DRV Cmax, effect of ethanol [3, 5]: no significant change
- intracellular Cmax of DRV, effect of ethanol ([3]; 20 mM ethanol): without altering

Compound: CC(C)c1nc(CN(C)C(=O)N[C@H](C(=O)N[C@@H](Cc2ccccc2)C[C@H](O)[C@H](Cc2ccccc2)NC(=O)OCc2cncs2)C(C)C)cs1 [RTV, Ritonavir]
- Cmax [4]: 1 µg/mL
